Several values for one entry are separate records, joined by “and”; a condition that tells them apart may be missing. Identical values can stand only once. Inconclusive results and toxic doses are left out.
Test system: P388 leukemia ip, CD2F1 mice, survival T/C
Assay: NCI In Vivo Anticancer Drug Screen. Data for tumor model P388 Leukemia (intraperitoneal) in CD2F1 (CDF1) mice
Settings: endpoint: median survival time, higher = longer survival
In short: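 Mice carrying the transplanted tumor received test compound or vehicle. Survival was recorded in each group, and the value is the treated-group measurement divided by that of the vehicle-treated control group.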

[1] = dose: 50.0 mg/kg/injection, schedule: Q01DX009 (ip), vehicle: water
[2] = dose: 60.0 mg/kg/injection, schedule: Q01DX005 (ip), vehicle: Klucel (hydroxypropylcellulose) (HPC)
[3] = dose: 120.0 mg/kg/injection, schedule: Q01DX005 (ip), vehicle: Klucel (hydroxypropylcellulose) (HPC)
[4] = dose: 240.0 mg/kg/injection, schedule: Q01DX005 (ip), vehicle: Klucel (hydroxypropylcellulose) (HPC)

SMILES: CN(C)CCSc1cccc2c1C(=O)c1cccc(SCCN(C)C)c1C2=O
- T/C (dose: 0.78 mg/kg/injection, schedule: Q01DX009 (ip), vehicle: saline): 89 % of control
- T/C (dose: 1.56 mg/kg/injection, schedule: Q01DX009 (ip), vehicle: saline): 90 % of control
- T/C (dose: 3.13 mg/kg/injection, schedule: Q01DX009 (ip), vehicle: saline): 98 % of control
- T/C (dose: 3.13 mg/kg/injection, schedule: Q01DX009 (ip), vehicle: water): 105 % of control and 98 % of control
- T/C (dose: 6.25 mg/kg/injection, schedule: Q01DX009 (ip), vehicle: saline): 86 % of control
- T/C (dose: 6.25 mg/kg/injection, schedule: Q01DX009 (ip), vehicle: water): 99 % of control and 100 % of control
- T/C (dose: 12.5 mg/kg/injection, schedule: Q01DX009 (ip), vehicle: saline): 121 % of control
- T/C (dose: 12.5 mg/kg/injection, schedule: Q01DX009 (ip), vehicle: water): 101 % of control and 90 % of control
- T/C (dose: 25.0 mg/kg/injection, schedule: Q01DX009 (ip), vehicle: water): 100 % of control and 92 % of control
- T/C [1]: 90 % of control

SMILES: N#C[C@H]1C[C@@H](c2ccccc2)N(c2ccccc2)O1
- T/C (dose: 50.0 mg/kg/injection, schedule: Q01DX005 (ip), vehicle: saline + Tween-80 + alcohol): 98 % of control
- T/C (dose: 100.0 mg/kg/injection, schedule: Q01DX005 (ip), vehicle: saline + Tween-80 + alcohol): 100 % of control
- T/C (dose: 200.0 mg/kg/injection, schedule: Q01DX005 (ip), vehicle: saline + Tween-80 + alcohol): 100 % of control

SMILES: CC(=O)Nc1cc(N)c2c(c1)CCCC2=O
- T/C [2]: 97 % of control
- T/C [3]: 96 % of control
- T/C [4]: 90 % of control

SMILES: Nc1ncnc2c1ccn2Cc1c(F)cccc1Cl
- T/C (dose: 50.0 mg/kg/injection, schedule: Q01DX005 (ip), vehicle: distilled water + alcohol): 100 % of control
- T/C (dose: 100.0 mg/kg/injection, schedule: Q01DX005 (ip), vehicle: distilled water + alcohol): 101 % of control
- T/C (dose: 200.0 mg/kg/injection, schedule: Q01DX005 (ip), vehicle: distilled water + alcohol): 105 % of control

SMILES: COC(=O)/C(=C\Sc1ccccc1)NC(C)=O
- T/C [2]: 100 % of control
- T/C [3]: 98 % of control
- T/C [4]: 107 % of control

SMILES: CNC(=O)OCc1c(COC(=O)NC)c(-c2ccc(-c3ccccc3)cc2)n(C)c1C
- T/C (dose: 2.5 mg/kg/injection, schedule: Q01DX009 (ip), vehicle: distilled water + Tween-80): 154 % of control
- T/C (dose: 5.0 mg/kg/injection, schedule: Q01DX009 (ip), vehicle: distilled water + Tween-80): 152 % of control
- T/C (dose: 10.0 mg/kg/injection, schedule: Q01DX009 (ip), vehicle: distilled water + Tween-80): 151 % of control
- T/C (dose: 15.0 mg/kg/injection, schedule: Q01DX009 (ip), vehicle: distilled water + Tween-80): 153 % of control
- T/C (dose: 20.0 mg/kg/injection, schedule: Q01DX009 (ip), vehicle: distilled water + Tween-80): 94 % of control

SMILES: O=[N+]([O-])c1ccc(C2=C[P+](c3ccccc3)(c3ccccc3)c3ccccc3O2)cc1
- T/C (dose: 0.78 mg/kg/injection, schedule: Q01DX005 (ip), vehicle: Klucel (hydroxypropylcellulose) (HPC)): 106 % of control
- T/C (dose: 1.56 mg/kg/injection, schedule: Q01DX005 (ip), vehicle: Klucel (hydroxypropylcellulose) (HPC)): 115 % of control
- T/C (dose: 3.12 mg/kg/injection, schedule: Q01DX005 (ip), vehicle: Klucel (hydroxypropylcellulose) (HPC)): 117 % of control
- T/C (dose: 6.25 mg/kg/injection, schedule: Q01DX005 (ip), vehicle: Klucel (hydroxypropylcellulose) (HPC)): 112 % of control

SMILES: CN1C(=O)c2ccccc2NC(=O)C12O[C@@H]2c1ccccc1 (some centres undefined)
- T/C (dose: 1.88 mg/kg/injection, schedule: Q01DX005 (ip), vehicle: DMSO): 100 % of control
- T/C (dose: 3.75 mg/kg/injection, schedule: Q01DX005 (ip), vehicle: DMSO): 106 % of control
- T/C (dose: 7.5 mg/kg/injection, schedule: Q01DX005 (ip), vehicle: DMSO): 106 % of control
- T/C (dose: 15.0 mg/kg/injection, schedule: Q01DX005 (ip), vehicle: DMSO): 114 % of control

SMILES: O=C(O)c1cc(C(=O)O)c(C(=O)O)cc1C(=O)O
- T/C [1]: 96 % of control
- T/C (dose: 100.0 mg/kg/injection, schedule: Q01DX009 (ip), vehicle: water): 100 % of control
- T/C (dose: 200.0 mg/kg/injection, schedule: Q01DX009 (ip), vehicle: water): 99 % of control

SMILES: CCCCCCCCCSCC
- T/C (dose: 50.0 mg/kg/injection, schedule: Q01DX009 (ip), vehicle: saline with Tween-80): 100 % of control
- T/C (dose: 100.0 mg/kg/injection, schedule: Q01DX009 (ip), vehicle: saline with Tween-80): 109 % of control
- T/C (dose: 100.0 mg/kg/injection, schedule: Q04DX003 (ip), vehicle: saline with Tween-80): 109 % of control
- T/C (dose: 200.0 mg/kg/injection, schedule: Q01DX009 (ip), vehicle: saline with Tween-80): 109 % of control
- T/C (dose: 200.0 mg/kg/injection, schedule: Q04DX003 (ip), vehicle: saline with Tween-80): 100 % of control
- T/C (dose: 400.0 mg/kg/injection, schedule: Q04DX003 (ip), vehicle: saline with Tween-80): 86 % of control

Source: PubChem BioAssay AID330 (DTP/NCI, 2004)
